Experimental data reported in the supplement of paper PMC10307832.

Experiments:
Assay in all cases: relative viability (nuclei count vs DMSO), 5 days (fraction); higher = more cells survive
201T = system: 201T
Procedure, shortened: (§1)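 The day after seeding in 1536-well plates, lung cancer cell lines were treated by pin tool with a single drug, or with a fixed anchor-drug dose together with five library-drug doses (not always all listed) in √10 steps. After 5 days, a combined fix-and-stain solution (final 0.05% Triton X-100, 1% formaldehyde, 1 ug/ml Hoechst) was added. Nuclei counted on 4× images gave relative viability as treated counts over vehicle counts, reported as the median of duplicate plates.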

A-427 = system: A-427
Procedure, shortened: as §1

H3255 = system: H3255
Procedure, shortened: as §1

HCC-44 = system: HCC-44
Procedure, shortened: as §1

LC-2-ad = system: LC-2-ad
Procedure, shortened: as §1

LCLC-103H = system: LCLC-103H
Procedure, shortened: as §1

LCLC-97TM1 = system: LCLC-97TM1
Procedure, shortened: as §1

LK-2 = system: LK-2
Procedure, shortened: as §1

LU99A = system: LU99A
Procedure, shortened: as §1

NCI-H1793 = system: NCI-H1793
Procedure, shortened: as §1

NCI-H2347 = system: NCI-H2347
Procedure, shortened: as §1

NCI-H23 = system: NCI-H23
Procedure, shortened: as §1

NCI-H460 = system: NCI-H460
Procedure, shortened: as §1

NCI-H596 = system: NCI-H596
Procedure, shortened: as §1

NCI-H727 = system: NCI-H727
Procedure, shortened: as §1

PC-14 = system: PC-14
Procedure, shortened: as §1

PC-3 [JPC-3] = system: PC-3 [JPC-3]
Procedure, shortened: as §1

SW 900 = system: SW 900
Procedure, shortened: as §1

Question: What does the source list for `O=c1cc(-c2cccc3c2Sc2ccccc2S3)oc(N2CCOCC2)c1` + NC(=O)Nc1cc(-c2cccc(F)c2)sc1C(=O)N[C@H]1CCCNC1 [AZD7762] (partner 0.2 µM)?
Answer: relative viability (201T; first compound 0.08 µM): 0.598; relative viability (201T; first compound 0.253 µM): 0.686; relative viability (201T; first compound 0.8 µM): 0.741; relative viability (201T; first compound 2.53 µM): 0.655; relative viability (201T; first compound 8 µM): 0.546; relative viability (A-427; first compound 0.08 µM): 0.715; relative viability (A-427; first compound 0.253 µM): 0.842; relative viability (A-427; first compound 0.8 µM): 0.791; relative viability (A-427; first compound 2.53 µM): 0.41; relative viability (A-427; first compound 8 µM): 0.616; relative viability (H3255; first compound 0.08 µM): 0.878; relative viability (H3255; first compound 0.253 µM): 0.996; relative viability (H3255; first compound 0.8 µM): 0.758; relative viability (H3255; first compound 2.53 µM): 0.882; relative viability (H3255; first compound 8 µM): 0.901; relative viability (HCC-44; first compound 0.08 µM): 1.06; relative viability (HCC-44; first compound 0.253 µM): 1.04; relative viability (HCC-44; first compound 0.8 µM): 0.937; relative viability (HCC-44; first compound 2.53 µM): 0.991; relative viability (HCC-44; first compound 8 µM): 0.986; relative viability (LC-2-ad; first compound 0.08 µM): 0.805; relative viability (LC-2-ad; first compound 0.253 µM): 0.944; relative viability (LC-2-ad; first compound 0.8 µM): 0.853; relative viability (LC-2-ad; first compound 2.53 µM): 0.741; relative viability (LC-2-ad; first compound 8 µM): 0.797; relative viability (LCLC-103H; first compound 0.08 µM): 0.717; relative viability (LCLC-103H; first compound 0.253 µM): 0.825; relative viability (LCLC-103H; first compound 0.8 µM): 0.866; relative viability (LCLC-103H; first compound 2.53 µM): 0.784; relative viability (LCLC-103H; first compound 8 µM): 0.822; relative viability (LCLC-97TM1; first compound 0.08 µM): 0.303; relative viability (LCLC-97TM1; first compound 0.253 µM): 0.191; relative viability (LCLC-97TM1; first compound 0.8 µM): 0.265; relative viability (LCLC-97TM1; first compound 2.53 µM): 0.114; relative viability (LCLC-97TM1; first compound 8 µM): 0.345; relative viability (LK-2; first compound 0.08 µM): 0.468; relative viability (LK-2; first compound 0.253 µM): 0.331; relative viability (LK-2; first compound 0.8 µM): 0.374; relative viability (LK-2; first compound 2.53 µM): 0.219; relative viability (LK-2; first compound 8 µM): 0.458; relative viability (LU99A; first compound 0.08 µM): 0.28; relative viability (LU99A; first compound 0.253 µM): 0.349; relative viability (LU99A; first compound 0.8 µM): 0.38; relative viability (LU99A; first compound 2.53 µM): 0.309; relative viability (LU99A; first compound 8 µM): 0.456; relative viability (NCI-H1793; first compound 0.08 µM): 0.299; relative viability (NCI-H1793; first compound 0.253 µM): 0.48; relative viability (NCI-H1793; first compound 0.8 µM): 0.458; relative viability (NCI-H1793; first compound 2.53 µM): 0.182; relative viability (NCI-H1793; first compound 8 µM): 0.377; relative viability (NCI-H2347; first compound 0.08 µM): 0.738; relative viability (NCI-H2347; first compound 0.253 µM): 0.798; relative viability (NCI-H2347; first compound 0.8 µM): 0.799; relative viability (NCI-H2347; first compound 2.53 µM): 0.749; relative viability (NCI-H2347; first compound 8 µM): 0.701; relative viability (NCI-H23; first compound 0.08 µM): 0.205; relative viability (NCI-H23; first compound 0.253 µM): 0.251; relative viability (NCI-H23; first compound 0.8 µM): 0.349; relative viability (NCI-H23; first compound 2.53 µM): 0.203; relative viability (NCI-H23; first compound 8 µM): 0.229; relative viability (NCI-H460; first compound 0.08 µM): 0.742; relative viability (NCI-H460; first compound 0.253 µM): 0.695; relative viability (NCI-H460; first compound 0.8 µM): 0.669; relative viability (NCI-H460; first compound 2.53 µM): 0.431; relative viability (NCI-H460; first compound 8 µM): 0.685; relative viability (NCI-H596; first compound 0.08 µM): 1.04; relative viability (NCI-H596; first compound 0.253 µM): 1.1; relative viability (NCI-H596; first compound 0.8 µM): 1.15; relative viability (NCI-H596; first compound 2.53 µM): 1; relative viability (NCI-H596; first compound 8 µM): 1.22; relative viability (NCI-H727; first compound 0.08 µM): 0.501; relative viability (NCI-H727; first compound 0.253 µM): 0.655; relative viability (NCI-H727; first compound 2.53 µM): 0.413; relative viability (NCI-H727; first compound 8 µM): 0.739; relative viability (PC-14; first compound 0.08 µM): 0.338; relative viability (PC-14; first compound 0.253 µM): 0.45; relative viability (PC-14; first compound 0.8 µM): 0.264; relative viability (PC-14; first compound 2.53 µM): 0.263; relative viability (PC-14; first compound 8 µM): 0.381; relative viability (PC-3 [JPC-3]; first compound 0.08 µM): 0.721; relative viability (PC-3 [JPC-3]; first compound 0.253 µM): 0.745; relative viability (PC-3 [JPC-3]; first compound 0.8 µM): 0.758; relative viability (PC-3 [JPC-3]; first compound 2.53 µM): 0.766; relative viability (PC-3 [JPC-3]; first compound 8 µM): 0.728; relative viability (SW 900; first compound 0.253 µM): 0.862; relative viability (SW 900; first compound 0.8 µM): 0.719; relative viability (SW 900; first compound 2.53 µM): 0.525; relative viability (SW 900; first compound 8 µM): 0.418
